Laboratory results as given in US20160122340A1, “HISTONE DEACETYLASE INHIBITORS BASED ON DERIVATIVES OF TRICYCLIC POLYHYDROACRIDINE AND ANALOGS POSSESSING FUSED SATURATED FIVE-AND-SEVEN-MEMBERED RINGS” (QUIMATRYX, S.L., priority 2013, published 2016).

Legend:
Human HDAC8 = biological target: T1, Human HDAC8 (Homo sapiens, UniProt Q9BY41); assay: In vitro HDAC8 inhibition, fluorogenic peptide substrate; assay type: biochemical; settings: read-out: IC50 (μM) HDAC-8
T1 construct: Full length, MW=42 kDa, expressed in an E. coli expression system; purchased BioMol SE-145; host or cells: E. coli
T1 sequence (Q9BY41 1-377): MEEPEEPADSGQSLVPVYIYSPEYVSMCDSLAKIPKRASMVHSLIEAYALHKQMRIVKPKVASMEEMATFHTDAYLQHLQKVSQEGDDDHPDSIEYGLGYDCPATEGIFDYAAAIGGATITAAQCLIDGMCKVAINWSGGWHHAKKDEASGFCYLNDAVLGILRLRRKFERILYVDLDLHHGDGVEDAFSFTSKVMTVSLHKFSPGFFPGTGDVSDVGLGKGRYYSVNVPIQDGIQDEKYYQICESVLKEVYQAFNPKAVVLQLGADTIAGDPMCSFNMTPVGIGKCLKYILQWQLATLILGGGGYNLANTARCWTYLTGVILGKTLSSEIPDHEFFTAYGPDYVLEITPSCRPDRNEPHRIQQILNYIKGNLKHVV
Experimental: (§1) In Vitro Inhibitory Activity of Histone Deacetylase: Human Isoforms HDAC1, 2, 3, 4, 5, 6, 7, 8, 9, 10 and 11 and HeLa Cell Line Nuclear Extract (IC50 Data)
(§2) All HDAC assays were performed using acetylated AMC-labeled peptide substrate: • Substrate for isoforms HDAC1, 2, 3, 6, 10, 11 and HeLa nuclear extract assays: Acetylated fluorogenic peptide from p53 residues 379-382 (RHKKAc). • Substrate for isoforms HDAC 4, 5, 7, 9: Fluorogenic Boc-L-Lys(ε-trifluoroacetyl)-AMC. • Substrate for HDAC8 assays: Acetylated fluorogenic peptide from p53 residues 379-382 (RHKAcKAc).
(§3) 50 μM of substrate peptide (see ‘substrate peptides’ section above) and an optimal concentration of the corresponding enzyme (see ‘enzymes’ section above) in the assay buffer and 1% final concentration of DMSO were incubated in the presence of gradient concentrations of inhibitors (10-dose IC50 mode with 3-fold serial dilution) at 30° C. for 2 h. The reactions were carried out in a 96-well microplate for fluorometry in a 50 μl reaction volume. After the deacetylation reaction, Fluor-de-Lys-Developer (BioMol Cat. # KI-105) was added to each well to digest the deacetylated substrate, thus producing the fluorescent signal. The reaction was allowed to develop for 45 minutes at 30° C. with 5% CO2; then the fluorescent signal was measured with an excitation wavelength at 360 nm and an emission wavelength at 460 nm in a microplate-reading fluorometer (GeminiXS; Molecular Devices, Sunnyvale, Calif.). A curve of Deacetylated Standard (Biomol, Cat. # KI-142; made from 100 μM with 1:2 dilution and 10-doses, 6 μl) allowed the conversion of fluorescent signal into micromoles of deacetylated product. All experiments were performed in triplicate. IC50 was calculated by fitting the experimental data to a dose-response curve. DMSO was used as negative control; Trichostatin A (Biomol Cat. # GR-309) was used as positive control inhibitor.

Human HDAC10 = biological target: T2, Human HDAC10 (Homo sapiens, UniProt Q969S8); assay: In vitro HDAC10 inhibition, fluorogenic peptide substrate; assay type: biochemical; settings: read-out: IC50 (μM) HDAC-10
T2 construct: Amino acids 1-631 with Nterminal GST tag, MW=96 kDa; GST (N); purchased BioMol SE-559; host or cells: baculovirus / Sf9 cells
T2 sequence (Q969S8 1-631): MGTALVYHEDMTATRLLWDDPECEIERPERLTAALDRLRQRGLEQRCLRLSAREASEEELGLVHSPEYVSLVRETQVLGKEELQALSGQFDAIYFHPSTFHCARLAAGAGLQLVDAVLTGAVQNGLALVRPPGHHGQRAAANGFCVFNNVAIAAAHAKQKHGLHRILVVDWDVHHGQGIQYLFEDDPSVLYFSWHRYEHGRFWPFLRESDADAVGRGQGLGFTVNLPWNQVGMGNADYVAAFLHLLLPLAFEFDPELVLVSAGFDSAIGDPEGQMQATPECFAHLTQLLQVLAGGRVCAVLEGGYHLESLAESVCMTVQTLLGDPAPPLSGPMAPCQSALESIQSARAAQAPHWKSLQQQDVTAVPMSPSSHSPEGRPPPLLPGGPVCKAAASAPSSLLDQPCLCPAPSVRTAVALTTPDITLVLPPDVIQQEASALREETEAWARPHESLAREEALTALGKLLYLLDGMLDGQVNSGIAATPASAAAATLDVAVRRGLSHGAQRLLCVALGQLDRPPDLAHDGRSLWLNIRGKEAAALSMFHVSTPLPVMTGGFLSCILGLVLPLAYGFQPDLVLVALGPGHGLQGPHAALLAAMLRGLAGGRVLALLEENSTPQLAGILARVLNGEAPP
Experimental: as §1, §2, §3

Human HDAC2 = biological target: T3, Human HDAC2 (Homo sapiens, UniProt Q92769); assay: In vitro HDAC2 inhibition, fluorogenic peptide substrate; assay type: biochemical; settings: read-out: IC50 (μM) HDAC-2
T3 construct: Full length with C-terminal His tag, MW=60 kDa; His (C); purchased BioMol SE-500; host or cells: baculovirus / Sf9 cells
Experimental: as §1, §2, §3

Human HDAC5 = biological target: T4, Human HDAC5 (Homo sapiens, UniProt Q9UQL6); assay: In vitro HDAC5 inhibition, fluorogenic substrate; assay type: biochemical; settings: read-out: IC50 (μM) HDAC-5
T4 construct: Full length with Nterminal GST tag, MW=150 kDa; GST (N); purchased BioMol, Hamburg, Germany; host or cells: baculovirus / Sf9 cells
Experimental: as §1, §2, §3

Human HDAC9 = biological target: T5, Human HDAC9 (Homo sapiens, UniProt Q9UKV0); assay: In vitro HDAC9 inhibition, fluorogenic substrate; assay type: biochemical; settings: read-out: IC50 (μM) HDAC-9
T5 construct: Amino acids 604-1066 with C-terminal His tag, MW=50.7 kDa; His (C); purchased BioMol, Hamburg, Germany; host or cells: baculovirus expression system
Experimental: as §1, §2, §3

Human HDAC4 = biological target: T6, Human HDAC4 (Homo sapiens, UniProt P56524); assay: In vitro HDAC4 inhibition, fluorogenic substrate; assay type: biochemical; settings: read-out: IC50 (μM) HDAC-4
T6 construct: Amino acids 627-1085 with N-terminal GST tag, MW=75.2 kDa; GST (N); purchased BioMol, Hamburg, Germany; host or cells: baculovirus expression system
Experimental: as §1, §2, §3

Human HDAC3/NcoR2 = biological target: T7, Human HDAC3/NcoR2 (Homo sapiens, UniProt O15379); assay: In vitro HDAC3 inhibition, fluorogenic peptide substrate; assay type: biochemical; settings: read-out: IC50 (μM) HDAC-3
T7 construct: Complex of human HDAC3, full length with C-terminal His tag, MW=49.7 kDa; His (C); purchased BioMol SE-507; host or cells: baculovirus expression system
Experimental: as §1, §2, §3

Human HDAC1 = biological target: T8, Human HDAC1 (Homo sapiens, UniProt Q13547); assay: In vitro HDAC1 inhibition, fluorogenic peptide substrate; assay type: biochemical; settings: read-out: IC50 (μM) HDAC-1
T8 construct: Full length with C-terminal GST tag, MW=79.9 kDa; GST (C); purchased BioMol SE-456; host or cells: baculovirus / Sf9 cells
Experimental: as §1, §2, §3

T5 sequence (Q9UKV0 604-1066 isoform Q9UKV0-5): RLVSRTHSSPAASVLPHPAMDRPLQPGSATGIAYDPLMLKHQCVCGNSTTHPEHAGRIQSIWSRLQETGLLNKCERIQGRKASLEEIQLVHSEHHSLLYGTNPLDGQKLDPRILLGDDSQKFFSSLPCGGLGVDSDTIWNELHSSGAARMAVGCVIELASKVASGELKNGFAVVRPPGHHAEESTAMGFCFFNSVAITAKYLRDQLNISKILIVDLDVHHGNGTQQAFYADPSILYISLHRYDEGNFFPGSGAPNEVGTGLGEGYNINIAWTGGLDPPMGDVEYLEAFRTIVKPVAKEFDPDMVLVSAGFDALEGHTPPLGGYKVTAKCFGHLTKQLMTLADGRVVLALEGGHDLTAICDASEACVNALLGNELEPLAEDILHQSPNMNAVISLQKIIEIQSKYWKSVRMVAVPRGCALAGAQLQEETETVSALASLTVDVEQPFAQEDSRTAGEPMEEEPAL
T6 sequence (P56524 627-1084 limits assumed): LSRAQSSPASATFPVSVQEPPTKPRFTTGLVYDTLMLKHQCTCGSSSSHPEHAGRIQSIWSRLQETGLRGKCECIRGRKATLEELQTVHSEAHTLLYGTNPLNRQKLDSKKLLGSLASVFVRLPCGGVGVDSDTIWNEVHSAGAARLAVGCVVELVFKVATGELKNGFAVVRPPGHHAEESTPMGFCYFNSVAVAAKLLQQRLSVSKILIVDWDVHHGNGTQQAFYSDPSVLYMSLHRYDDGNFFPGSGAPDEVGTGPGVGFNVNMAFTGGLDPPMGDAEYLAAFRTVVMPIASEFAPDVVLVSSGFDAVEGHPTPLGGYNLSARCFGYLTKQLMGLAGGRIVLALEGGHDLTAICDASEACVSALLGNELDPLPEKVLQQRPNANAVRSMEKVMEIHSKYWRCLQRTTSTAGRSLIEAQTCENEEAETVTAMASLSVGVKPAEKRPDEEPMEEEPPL
T3 sequence (Q92769 whole entry): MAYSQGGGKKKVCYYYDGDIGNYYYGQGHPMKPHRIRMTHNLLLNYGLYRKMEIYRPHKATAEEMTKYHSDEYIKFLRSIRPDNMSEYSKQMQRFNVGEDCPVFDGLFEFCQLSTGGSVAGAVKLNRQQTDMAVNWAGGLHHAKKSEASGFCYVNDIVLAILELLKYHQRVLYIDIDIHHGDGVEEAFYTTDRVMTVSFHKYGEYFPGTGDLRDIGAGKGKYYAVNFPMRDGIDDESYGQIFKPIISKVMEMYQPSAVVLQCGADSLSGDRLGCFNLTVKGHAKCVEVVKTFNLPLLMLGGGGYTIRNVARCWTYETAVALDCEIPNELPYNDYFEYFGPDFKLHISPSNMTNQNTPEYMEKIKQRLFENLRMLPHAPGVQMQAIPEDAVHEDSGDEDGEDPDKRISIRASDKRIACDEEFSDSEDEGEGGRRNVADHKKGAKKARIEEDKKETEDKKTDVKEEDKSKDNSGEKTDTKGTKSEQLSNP
T8 sequence (Q13547 whole entry): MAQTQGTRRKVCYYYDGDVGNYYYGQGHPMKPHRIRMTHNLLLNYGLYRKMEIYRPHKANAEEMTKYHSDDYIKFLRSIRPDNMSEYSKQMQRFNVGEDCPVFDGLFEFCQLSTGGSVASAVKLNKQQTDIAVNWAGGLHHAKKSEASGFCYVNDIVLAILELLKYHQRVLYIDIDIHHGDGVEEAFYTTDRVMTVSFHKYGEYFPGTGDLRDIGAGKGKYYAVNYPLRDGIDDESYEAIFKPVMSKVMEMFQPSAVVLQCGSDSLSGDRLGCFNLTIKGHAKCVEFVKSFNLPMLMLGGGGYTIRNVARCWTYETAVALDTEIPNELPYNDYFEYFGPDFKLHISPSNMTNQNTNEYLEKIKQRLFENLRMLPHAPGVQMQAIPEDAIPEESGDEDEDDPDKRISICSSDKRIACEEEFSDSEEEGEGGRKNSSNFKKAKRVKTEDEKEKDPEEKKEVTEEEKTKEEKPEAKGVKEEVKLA
T4 sequence (Q9UQL6 1-1123 isoform Q9UQL6-3): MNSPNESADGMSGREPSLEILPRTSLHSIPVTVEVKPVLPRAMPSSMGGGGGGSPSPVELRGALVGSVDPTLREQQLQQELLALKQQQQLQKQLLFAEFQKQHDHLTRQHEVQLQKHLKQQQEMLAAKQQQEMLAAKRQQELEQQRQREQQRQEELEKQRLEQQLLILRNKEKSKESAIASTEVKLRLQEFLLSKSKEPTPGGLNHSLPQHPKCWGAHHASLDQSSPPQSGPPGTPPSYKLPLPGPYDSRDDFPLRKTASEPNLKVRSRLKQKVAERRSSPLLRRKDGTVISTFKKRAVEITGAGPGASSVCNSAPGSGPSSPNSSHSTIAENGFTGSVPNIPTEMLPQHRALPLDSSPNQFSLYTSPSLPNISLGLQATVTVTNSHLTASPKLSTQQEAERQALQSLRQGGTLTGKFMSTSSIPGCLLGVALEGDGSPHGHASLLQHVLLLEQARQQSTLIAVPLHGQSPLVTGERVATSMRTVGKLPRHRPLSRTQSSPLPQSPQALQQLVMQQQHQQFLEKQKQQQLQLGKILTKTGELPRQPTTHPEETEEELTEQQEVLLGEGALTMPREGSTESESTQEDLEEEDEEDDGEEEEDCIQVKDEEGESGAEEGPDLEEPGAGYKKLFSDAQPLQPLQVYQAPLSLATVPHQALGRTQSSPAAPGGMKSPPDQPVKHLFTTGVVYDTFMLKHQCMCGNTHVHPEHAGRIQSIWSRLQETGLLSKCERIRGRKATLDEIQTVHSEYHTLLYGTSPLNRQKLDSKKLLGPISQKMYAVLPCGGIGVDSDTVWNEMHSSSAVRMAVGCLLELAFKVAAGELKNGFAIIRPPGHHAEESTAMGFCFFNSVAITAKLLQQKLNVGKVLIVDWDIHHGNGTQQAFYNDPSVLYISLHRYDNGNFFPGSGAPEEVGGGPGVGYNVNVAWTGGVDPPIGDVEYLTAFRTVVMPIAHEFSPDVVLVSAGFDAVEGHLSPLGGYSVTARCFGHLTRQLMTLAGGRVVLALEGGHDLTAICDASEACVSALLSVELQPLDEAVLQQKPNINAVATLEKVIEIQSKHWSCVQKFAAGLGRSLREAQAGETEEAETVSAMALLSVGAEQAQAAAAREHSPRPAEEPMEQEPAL
T7 sequence (O15379 whole entry): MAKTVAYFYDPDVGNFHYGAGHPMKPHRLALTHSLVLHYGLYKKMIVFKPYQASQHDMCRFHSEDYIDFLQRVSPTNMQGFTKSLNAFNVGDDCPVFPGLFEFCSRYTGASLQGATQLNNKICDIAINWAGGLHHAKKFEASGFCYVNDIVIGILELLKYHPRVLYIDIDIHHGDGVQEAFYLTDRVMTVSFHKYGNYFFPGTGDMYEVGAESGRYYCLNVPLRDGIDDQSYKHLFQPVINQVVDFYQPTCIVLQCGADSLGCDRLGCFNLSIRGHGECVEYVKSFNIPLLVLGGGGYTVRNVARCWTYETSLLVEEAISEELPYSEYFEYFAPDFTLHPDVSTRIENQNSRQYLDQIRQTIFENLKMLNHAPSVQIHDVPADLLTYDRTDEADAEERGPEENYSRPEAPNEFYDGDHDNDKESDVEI
T7 sequence (Q9Y618 395-489 partner limits assumed): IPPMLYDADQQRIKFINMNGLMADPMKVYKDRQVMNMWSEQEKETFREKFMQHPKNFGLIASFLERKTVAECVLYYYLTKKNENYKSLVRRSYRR

IC50 (Human HDAC8) [µM]	IC50 (Human HDAC10) [µM]	IC50 (Human HDAC2) [µM]	IC50 (Human HDAC5) [µM]	IC50 (Human HDAC9) [µM]	IC50 (Human HDAC4) [µM]	melting point [°C]	IC50 (Human HDAC3/NcoR2) [µM]	IC50 (Human HDAC1) [µM]	SMILES
0.59	5.76	6.09	2.14	2.47	6.19	162 to 164	2.84	2.99	O=C(CCCCCNc1c2c(nc3ccccc13)CCCC2)NO [Example 1, N-hydroxy-6-[(1,2,3,4-tetrahydroacridin-9-yl)amino]hexanamide]
0.53	0.71	0.75	0.44	1.57	> 5	156 to 157	0.42	0.36	O=C(CCCCCCNc1c2c(nc3ccccc13)CCCC2)NO [Example 2, N-hydroxy-7-[(1,2,3,4-tetrahydroacridin-9-yl)amino]heptanamide]
1.28	0.51	0.77	> 5	> 5	> 5	165 to 166	0.36	0.27	O=C(CCCCCCNc1c2c(nc3ccccc13)CCC2)NO [Example 3, 7-[(2,3-dihydro-1H-cyclopenta[b]quinolin-9-yl)amino]-N-hydroxyheptanamide]
0.84	1.13	1.92	> 5	> 5	> 5	155 to 156	0.74	0.84	O=C(CCCCCCNc1c2c(nc3ccccc13)CCCCC2)NO [Example 4, N-hydroxy-7-[(7,8,9,10-tetrahydro-6H-cyclohepta[b]quinolin-11-yl)amino]heptanamide]
1.52	1.46	1.84	> 5	> 5	> 5	361	0.66	0.9	COc1cccc2c(NCCCCCCC(=O)NO)c3c(nc12)CCCC3 [Example 5, N-hydroxy-7-[(5-methoxy-1,2,3,4-tetrahydroacridin-9-yl)amino]heptanamide]
1.44	4.02	4.46	> 5	> 5	> 5	234 to 235	2.44	1.77	O=C(CCCCCCNc1c2c(nc3ncccc13)CCCC2)NO [Example 7, N-hydroxy-7-[(6,7,8,9-tetrahydrobenzo[b][1,8]naphthyridin-5-yl)amino]heptanamide]
1.09	2.02	2.41	> 5	> 5	> 5	56.7	1.88	1.12	O=C(CCCCCCNc1c2c(nc3cnccc13)CCCC2)NO [Example 8, N-hydroxy-7-[(6,7,8,9-tetrahydrobenzo[b][1,7]naphthyridin-5-yl)amino]heptanamide]
–	> 5	> 5	> 5	–	> 5	187 to 188	> 5	> 5	O=C(CCCCCNC(=O)c1c2c(nc3ccccc13)CCCC2)NO [Example 10, N-[6-(hydroxyamino)-6-oxohexyl]-1,2,3,4-tetrahydroacridine-9-carboxamide]
0.21	6.89	8.48	4.24	3.17	> 5	185 to 186	3.62	2.95	O=C(CCCCCCNC(=O)c1c2c(nc3ccccc13)CCCC2)NO [Example 11, N-[7-(hydroxyamino)-7-oxoheptyl]-1,2,3,4-tetrahydroacridine-9-carboxamide]
